From patent US5258406A, “Sulfonimidamides” (priority 1992, dated 1993)
Read-outs that look alike come from different tables or passages of the source.

What was measured:
6C3HED lymphosarcoma = assay: animal or person; assay type: in vivo; conditions: for Tox/Tot (mice which died / total) / % inhibition of tumor growth: oral
Procedure: (§1) The compounds were tested in C3H mice bearing a 6C3HED lymphosarcoma, also known as the Gardner lymphosarcoma (GLS), and in a variety of human tumor xenografts in CD1 nu/nu mice, including CX-1, LX-1, HXGC3, and VRC5. The 6C3HED lymphosarcoma was obtained from the Division of Cancer Treatment, National […] Institute, Tumor Bank, maintained at E. G. and G. Mason Research (Worcester, Mass.). The CX-1 human colon carcinoma and the LX-1 human lung carcinoma xenografts were obtained from the National Cancer Institute. The HXGC3 and VRC5 human colon xenografts were obtained from Dr. P. J. Houghton, St. Jude Children's Hospital in Memphis (see Br. J. Cancer, 37, 213 (1978)). First passage tumor was stored in liquid nitrogen using standard techniques. The transplanted tumor was reestablished from the Tumor Bank every six months or as needed. The tumor was maintained by serial passage twice weekly in C3H mice.
(§2) In the procedure the tumor was removed from passage animals and minced into 1- to 3-mm square fragments using sterile techniques. Tumor pieces were checked for sterility using both Antibiotic Medium 1 and Brain Heart Infusion (Difco, Detroit, Mich.). Recipient mice were shaved and tumor pieces were implanted subcutaneously in the auxiliary region by trocar. Drug therapy on the appropriate schedule was initiated on the day after tumor implant for 6C3HED and after a seven (7) day delay for xenografts (or other delay as noted in Table 2). The compound being tested was mixed with 2.5% Emulphor EL620 from GAF Corporation (1:40 dilution in saline). Food and water were provided ad libitium. The drug was administered orally in 0.5 ml of 2.5% Emulphor (unless otherwise indicated). The tumor was measured the day after treatment ended with two dimensional measurements (width and length) of the tumor taken using automated digital calipers interfaced to a microcomputer. Approximate weight for the tumor was calculated using the following formula [Worzalla, J. F., et al., Invest. New Drugs, 8, 241 (1990], (tumor weight in mg)=(width in mm)^2 ×(length in mm)/2.
(§3) At least one control group of an equal number of mice was treated with the same volume of 2.5% Emulphor only. The percent inhibition was determined by subtracting the ratio of the mean tumor size of the test group relative to the control group from one and multiplying the result times 100.
(§4) The results of several experiments in mice bearing a 6C3HED lymphosarcoma (or other tumor where indicated) when the indicated compounds were administered are provided in Table 2. In Table 2, column 1 gives the Example number of the compound used, column 2 lists the dose level in mg/kg, column 3 provides the percent inhibition of tumor growth, column 4 gives the number of mice which died relative to the total number of animals in the group, column 5 gives the method of administration of the compound, and column 6 gives the dosage schedule. The protocol used with other tumors was the same as with the 6C3HED lymphosarcoma.

LX1 = assay type: in vivo
Procedure: as §1, §2, §3, §4

[1] = Mus musculus, 6C3HED, po, read-out: % inhibition of tumor growth, oral, 150 mg/kg, BIDX 8
[2] = Mus musculus, 6C3HED, po, read-out: % inhibition of tumor growth, oral, 300 mg/kg, BIDX 8

## Cc1cc(S(=N)(=O)NC(=O)Nc2ccc(Cl)cc2)cc(C)c1C (stereo not drawn) [Example 45, N-[[(4-chlorophenyl)amino]carbonyl]-3,4,5-trimethylbenzenesulfonimidamide]
6C3HED lymphosarcoma; Mus musculus, 6C3HED, po, read-out: % inhibition of tumor growth, oral, 9.37 mg/kg, Days 1, 3, 5, 7
  inhibition in vivo at 9.37 mg/kg: 78%
6C3HED lymphosarcoma; Mus musculus, 6C3HED, po, read-out: % inhibition of tumor growth, oral, 18.75 mg/kg, Days 1, 3, 5, 7
  inhibition in vivo at 18.75 mg/kg: 95%
6C3HED lymphosarcoma; Mus musculus, 6C3HED, po, read-out: % inhibition of tumor growth, oral, 37.5 mg/kg, Days 1, 3, 5, 7
  inhibition in vivo at 37.5 mg/kg: 99%
6C3HED lymphosarcoma; Mus musculus, 6C3HED, po, read-out: % inhibition of tumor growth, oral, 75 mg/kg, Days 1, 3, 5, 7
  inhibition in vivo at 75 mg/kg: 99%
6C3HED lymphosarcoma; Mus musculus, 6C3HED, po, read-out: % inhibition of tumor growth, oral, 150 mg/kg, Days 1, 3, 5, 7
  inhibition in vivo at 150 mg/kg: 100%
6C3HED lymphosarcoma; Mus musculus, 6C3HED, po, read-out: % inhibition of tumor growth, oral, 300 mg/kg, Days 1, 3, 5, 7
  inhibition in vivo at 300 mg/kg: 100%
6C3HED lymphosarcoma; 9.37 mg/kg, Days 1, 3, 5, 7
  Tox/Tot (mice which died / total): 0/10
6C3HED lymphosarcoma; 18.75 mg/kg, Days 1, 3, 5, 7
  Tox/Tot (mice which died / total): 0/10
6C3HED lymphosarcoma; 37.5 mg/kg, Days 1, 3, 5, 7
  Tox/Tot (mice which died / total): 2/10
6C3HED lymphosarcoma; 75 mg/kg, Days 1, 3, 5, 7
  Tox/Tot (mice which died / total): 1/10
6C3HED lymphosarcoma; 150 mg/kg, Days 1, 3, 5, 7
  % inhibition of tumor growth: 99%
  Tox/Tot (mice which died / total): 2/10
6C3HED lymphosarcoma; 300 mg/kg, Days 1, 3, 5, 7
  Tox/Tot (mice which died / total): 3/10
LX1; oral, 150 mg/kg, Days 1, 4, 7, 10, from day 7 after implant
  Tox/Tot (mice which died / total): 0/9
LX1; oral, 300 mg/kg, Days 1, 4, 7, 10, from day 7 after implant
  Tox/Tot (mice which died / total): 0/10
LX1; po, 150 mg/kg, 168 h
  % inhibition of tumor growth: 40%
LX1; po, 300 mg/kg, 168 h
  % inhibition of tumor growth: 31%

## CN=S(=O)(NC(=O)Nc1ccc(Cl)cc1)c1ccc(C)cc1 (stereo not drawn) [Example 3, N-[[(4-Chlorophenyl)amino]carbonyl]-N',4-dimethylbenzenesulfonimidamide]
6C3HED lymphosarcoma; Mus musculus, 6C3HED, po, read-out: % inhibition of tumor growth, oral, 12.5 mg/kg, BIDX 8
  inhibition in vivo at 12.5 mg/kg: 58%
6C3HED lymphosarcoma; Mus musculus, 6C3HED, po, read-out: % inhibition of tumor growth, oral, 25 mg/kg, BIDX 8
  inhibition in vivo at 25 mg/kg: 82%
6C3HED lymphosarcoma; Mus musculus, 6C3HED, po, read-out: % inhibition of tumor growth, oral, 50 mg/kg, BIDX 8
  inhibition in vivo at 50 mg/kg: 91%
6C3HED lymphosarcoma; Mus musculus, 6C3HED, po, read-out: % inhibition of tumor growth, oral, 75 mg/kg, DX 8
  inhibition in vivo at 75 mg/kg: 81%
6C3HED lymphosarcoma; Mus musculus, 6C3HED, po, read-out: % inhibition of tumor growth, oral, 100 mg/kg, BIDX 8
  inhibition in vivo at 100 mg/kg: 99%
6C3HED lymphosarcoma; Mus musculus, 6C3HED, po, read-out: % inhibition of tumor growth, oral, 150 mg/kg, DX 8
  inhibition in vivo at 150 mg/kg: 93%
6C3HED lymphosarcoma; Mus musculus, 6C3HED, po, read-out: % inhibition of tumor growth, oral, 200 mg/kg, BIDX 8
  inhibition in vivo at 200 mg/kg: 100%
6C3HED lymphosarcoma; Mus musculus, 6C3HED, po, read-out: % inhibition of tumor growth, oral, 300 mg/kg, DX 8
  inhibition in vivo at 300 mg/kg: 99%
6C3HED lymphosarcoma; Mus musculus, 6C3HED, po, read-out: % inhibition of tumor growth, oral, 600 mg/kg, DX 8
  inhibition in vivo at 600 mg/kg: 100%
6C3HED lymphosarcoma; 12.5 mg/kg, BIDX 8
  Tox/Tot (mice which died / total): 0/10
6C3HED lymphosarcoma; 25 mg/kg, BIDX 8
  Tox/Tot (mice which died / total): 0/10
6C3HED lymphosarcoma; 50 mg/kg, BIDX 8
  Tox/Tot (mice which died / total): 0/10
6C3HED lymphosarcoma; 75 mg/kg, DX 8
  Tox/Tot (mice which died / total): 0/10
6C3HED lymphosarcoma; 100 mg/kg, BIDX 8
  Tox/Tot (mice which died / total): 0/10
6C3HED lymphosarcoma; 150 mg/kg, DX 8
  % inhibition of tumor growth: 96%
  Tox/Tot (mice which died / total): 1/10
6C3HED lymphosarcoma; 200 mg/kg, BIDX 8
  Tox/Tot (mice which died / total): 0/10
6C3HED lymphosarcoma; 300 mg/kg, DX 8
  Tox/Tot (mice which died / total): 0/10
6C3HED lymphosarcoma; 600 mg/kg, DX 8
  Tox/Tot (mice which died / total): 4/10
6C3HED lymphosarcoma; 1200 mg/kg, DX 8
  % inhibition of tumor growth: TOX
  Tox/Tot (mice which died / total): 10/10
LX1; oral, 150 mg/kg, BIDX 10
  % inhibition of tumor growth: TOX
  Tox/Tot (mice which died / total): 8/8
LX1; oral, 300 mg/kg, BIDX 10
  % inhibition of tumor growth: TOX
  Tox/Tot (mice which died / total): 8/8

## Cc1ccc(S(=O)(=NC(=O)Nc2ccc(Cl)cc2)NCCc2ccccc2)cc1 (stereo not drawn) [Example 13]
6C3HED lymphosarcoma; [1]
  inhibition in vivo at 150 mg/kg: 39%
6C3HED lymphosarcoma; [2]
  inhibition in vivo at 300 mg/kg: 48%
6C3HED lymphosarcoma; 150 mg/kg, BIDX 8
  Tox/Tot (mice which died / total): 0/10
6C3HED lymphosarcoma; 300 mg/kg, BIDX 8
  Tox/Tot (mice which died / total): 0/10

## Cc1ccc(S(=O)(=NC(=O)Nc2ccc(Cl)cc2)NCCCO)cc1 (stereo not drawn) [Example 11]
6C3HED lymphosarcoma; [1]
  inhibition in vivo at 150 mg/kg: 65%
6C3HED lymphosarcoma; [2]
  inhibition in vivo at 300 mg/kg: 89%
6C3HED lymphosarcoma; 150 mg/kg, BIDX 8
  Tox/Tot (mice which died / total): 0/10
6C3HED lymphosarcoma; 300 mg/kg, BIDX 8
  Tox/Tot (mice which died / total): 2/10

## Cc1ccc(S(=O)(=NC(C)C)NC(=O)Nc2ccc(Cl)cc2)cc1 (stereo not drawn) [Example 6, N-[[(4-chlorophenyl)amino]carbonyl]-N'-(1-methylethyl)-4-methylbenzenesulfonimidamide]
6C3HED lymphosarcoma; Mus musculus, 6C3HED, po, read-out: % inhibition of tumor growth, oral, 18.75 mg/kg, BIDX 8
  inhibition in vivo at 18.75 mg/kg: 18%
6C3HED lymphosarcoma; Mus musculus, 6C3HED, po, read-out: % inhibition of tumor growth, oral, 37.5 mg/kg, BIDX 8
  inhibition in vivo at 37.5 mg/kg: 60%
6C3HED lymphosarcoma; Mus musculus, 6C3HED, po, read-out: % inhibition of tumor growth, oral, 75 mg/kg, BIDX 8
  inhibition in vivo at 75 mg/kg: 86%
6C3HED lymphosarcoma; [1]
  inhibition in vivo at 150 mg/kg: 93%
6C3HED lymphosarcoma; [2]
  inhibition in vivo at 300 mg/kg: 99%
6C3HED lymphosarcoma; 18.75 mg/kg, BIDX 8
  Tox/Tot (mice which died / total): 0/10
6C3HED lymphosarcoma; 37.5 mg/kg, BIDX 8
  Tox/Tot (mice which died / total): 0/10
6C3HED lymphosarcoma; 75 mg/kg, BIDX 8
  Tox/Tot (mice which died / total): 0/10
6C3HED lymphosarcoma; 150 mg/kg, BIDX 8
  % inhibition of tumor growth: 99%
6C3HED lymphosarcoma; 300 mg/kg, BIDX 8
  Tox/Tot (mice which died / total): 2/10
